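Briefly, cells in 96-well plates were exposed to five compound concentrations for 48 h, and endpoints were estimated by linear interpolation. GI50: concentration for 50% inhibition of growth. TGI: concentration producing complete growth inhibition.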
Columns and labels:
Assay in all cases: NCI-60 cell line screen, 48 h
M14 melanoma = test system: M14 melanoma
HCT-15 colon = test system: HCT-15 colon
UACC-62 melanoma = test system: UACC-62 melanoma
NCI-H522 lung = test system: NCI-H522 lung
UO-31 renal = test system: UO-31 renal
RXF 393 renal = test system: RXF 393 renal
HT29 colon = test system: HT29 colon
OVCAR-3 ovarian = test system: OVCAR-3 ovarian
SW-620 colon = test system: SW-620 colon
786-0 renal = test system: 786-0 renal
K-562 leukemia = test system: K-562 leukemia
MALME-3M melanoma = test system: MALME-3M melanoma
HOP-62 NSCLC = test system: HOP-62 NSCLC
LOX IMVI melanoma = test system: LOX IMVI melanoma
SK-MEL-5 melanoma = test system: SK-MEL-5 melanoma
IGROV1 ovarian = test system: IGROV1 ovarian
MCF7 breast = test system: MCF7 breast

Row | Compound | TGI (M14 melanoma) | TGI (HCT-15 colon) | TGI (UACC-62 melanoma) | TGI (NCI-H522 lung) | TGI (UO-31 renal) | TGI (RXF 393 renal) | TGI (HT29 colon) | TGI (OVCAR-3 ovarian) | TGI (SW-620 colon) | TGI (786-0 renal) | TGI (K-562 leukemia) | TGI (MALME-3M melanoma) | TGI (HOP-62 NSCLC) | TGI (LOX IMVI melanoma) | TGI (SK-MEL-5 melanoma) | TGI (IGROV1 ovarian) | TGI (MCF7 breast) | GI50 (RXF 393 renal) | GI50 (MCF7 breast) | GI50 (HOP-62 NSCLC)
1 | CCOc1ccc(/C(Cl)=C(\C=O)c2ccc(OC)c(OC)c2)cc1OCC | > 100 µM | > 100 µM | > 100 µM | > 100 µM | > 100 µM | > 100 µM | > 100 µM | > 100 µM | > 100 µM | > 100 µM | > 100 µM | > 100 µM | > 100 µM | > 100 µM | 64.9 µM | > 100 µM | – | – | – | –
2 | CC(C)C1=CC23CCC4C(C)(C(=O)O)CCCC4(C)C2CC1C1C(=O)N(c2ccccc2N2C(=O)C4C5CC6C7(C)CCCC(C)(C(=O)O)C7CCC6(C=C5C(C)C)C4C2=O)C(=O)C13 (stereo not drawn) | 19.8 µM | 29.8 µM | – | 23 µM | 32.3 µM | 32.1 µM | 10.6 µM | 23.4 µM | 30.6 µM | 62.8 µM | 73 µM | 28.3 µM | 18.9 µM | – | 17.5 µM | – | – | – | – | –
3 | CC1=NN(c2nc(N)nc(CSc3nc4n(c(=S)n3)CCN4)n2)C(C)(C)C1 | > 100 µM | > 100 µM | > 100 µM | – | – | 38.7 µM | > 100 µM | – | > 100 µM | > 100 µM | > 100 µM | – | 27.9 µM | > 100 µM | > 100 µM | 51.5 µM | > 100 µM | – | – | –
4 | Cn1c(O)c(C=Nc2ccccc2[N+](=O)[O-])c(=O)n(C)c1=O | > 100 µM | > 100 µM | > 100 µM | > 100 µM | > 100 µM | > 100 µM | > 100 µM | > 100 µM | > 100 µM | > 100 µM | > 100 µM | > 100 µM | > 100 µM | > 100 µM | > 100 µM | > 100 µM | – | – | – | –
5 | CC(C)OCC1CC(CC(=O)Nc2nncs2)C(=O)O1 (stereo not drawn) | > 100 µM | > 100 µM | > 100 µM | – | > 100 µM | – | > 100 µM | > 100 µM | > 100 µM | > 100 µM | > 100 µM | – | > 100 µM | > 100 µM | > 100 µM | > 100 µM | > 100 µM | – | – | –
6 | COc1cccc([C@H]2C/C(=N\NC(=O)C(=O)N[C@@H](C)c3ccccc3)c3ccccc3N2)c1 | > 100 µM | > 100 µM | 0.0962 µM | – | > 100 µM | > 100 µM | – | > 100 µM | > 100 µM | 97.3 µM | 0.0554 µM | – | – | > 100 µM | 0.868 µM | – | > 100 µM | 0.0303 µM | 0.0306 µM | 0.0835 µM
7 | COc1ccc(N=Cc2ccc(N(CCC#N)S(=O)(=O)c3ccccc3)cc2)cc1 | > 100 µM | > 100 µM | > 100 µM | > 100 µM | > 100 µM | > 100 µM | > 100 µM | > 100 µM | > 100 µM | > 100 µM | > 100 µM | > 100 µM | > 100 µM | > 100 µM | > 100 µM | > 100 µM | – | – | – | –

Source: PubChem BioAssay (NCI)
